Test results reported in patent publication US20140294856A1, “COMBINATION TREATMENT COMPRISING A HDAC6 INHIBITOR AND AN AKT INHIBITOR” (priority 2011, published 2014).
Converted amounts (≈) assume the structure as drawn.

Tests used:
[1] = tested on: panel of 19 cancer cell lines; experiment: Growth inhibition, SRB assay, 72 hours; type: cell-based
P-gp = P-gp (Homo sapiens, UniProt P08183)
HDAC6 = HDAC6 (Homo sapiens, UniProt Q9UBN7); experiment: Enzyme inhibition activity, Fluor-de-Lys kit; type: biochemical
Text: FIG. 20 (Table 1): Enzyme inhibition activity using HeLa nuclear extract and the Fluor-de-Lys kit.
HSP90 protein expression was not altered (FIG. 2).

HCT116 tumours = experiment: Phospho-AKT levels in HCT116 tumours; type: in vivo, mice
HCT116 xenograft [2] = experiment: Differential gene expression, affymetrix human genome array; type: in vivo, mice
HCT116 xenograft [3] = experiment: [18F]FLT-PET tumour uptake; type: in vivo, mice
Experimental: FIG. 6. [18F]-FLT uptake at 24 h and 48 h following a single injection I.P. of HDAC-C1A at 40 mg/kg in HCT116 xenograft model. A. PET/CT (bottom) and corresponding CT (top) images of the [18]-FLT uptake. […] The tumour is indicated by an arrow. B. Area under the curve data. The results are the mean+/−SEM of at least 4 animals per group.
FIG. 13. […] A. relative tumour volume to day 1. […] B. Corresponding body weights throughout the course of the experiment. […] C. Time activity curve represent [18F]FLT uptake over 60 minutes. Results are mean of at least 3 animals. D. Area under the curve, [18F]FLT uptake in the tumour over 60 minutes. E. NUV60, [18F]FLT uptake in the tumour at 60 minutes. […] The levels of total AKT are represented as loading control.
FIG. 16. [18F]FLT uptake following treatment with BEZ235 and in combination with HDAC-C1A after 48 hours in a HCT116 xenograft model. Mice were treated with either BEZ235 alone at 20 mg/kg/day for 2 days P.O., with 1HDACC1A at 20 mg/kg/day for 2 days I.P. or with a combination HDAC-C1A (20 mg/kg/day for 1 or 2 days)+BEZ-235 (20 mg/kg/day for 1 or 2 days). BEZ235 was given first and 30 min later, mice received an injection of HDAC-C1A. A. time activity curve represent [18F]FLT uptake over 60 minutes. Results are mean of at least 3 animals. B. Area under the curve, [18F]FLT uptake in the tumour over 60 minutes. C. NUV60, [18F]FLT uptake in the tumour at 60 minutes. D. Cross section (axial plane) of mice representative of different treatment cohorts. The top pictures show [18F]FLT uptake pictures (PET/CT), the bottom represent the corresponding CT scan. The arrows point the tumour.
We also assessed the potential of [^18F]fluorothymidine positron emission tomography ([^18F]FLT-PET) to measure early response to HDAC-C1A treatment in HCT116 xenograft bearing mice (FIG. 6). There was a 2-fold decrease in tumour [^18F]FLT uptake in animals treated continuously for 48 h compared to vehicle treated controls; the area under the normalized [^18F]FLT time versus activity curve was 117±6.9 before treatment and decreased to 106±5.5 (P=0.02) at 24 hours and 54±5 (P=0.0001) at 48 hours after initiating treatment (FIG. 6.B).
The efficacy of the combination HDAC-C1A (20 mg/kg/day) and BEZ235 ([…]) could be monitored with [^18F]FLT-PET in HCT116 tumour bearing mice as early as 24H-48H. There was a 1.7-fold decrease in tumour [^18F]FLT uptake in animals treated continuously for 24 h-48 h compared to vehicle treated controls; the area under the normalized [^18F]FLT time versus activity curve was 542±17 before treatment and decreased to 312±22 (P=0.0002) at 24-48 hours after initiating treatment (FIG. 16.B).

HCT116 cells = experiment: Combination studies, SRB assay, combination index (CalcuSyn); type: cell-based, human
SH-SY5Y = experiment: Growth inhibition, SRB assay, 72 hours; type: cell-based; conditions: SH-SY5Y neuroblastoma
[4] = tested on: A2780 human ovarian cancer xenograft; experiment: Anti-tumour activity in A2780 xenograft model; type: in vivo
Experimental: FIG. 5. Anti-tumour activity of HDAC-C1A in A2780 (A & B) and HCT116 (C & D) xenograft models (Tumours volumes relative to tumour volume at day 1 (A & C) and corresponding body weight (relative to body weight at day 1) (B & D)). E. Biomarkers screening at early time points following a single injection of HDAC-C1A in HCT116 xenograft at 40 mg/kg compared to a continuous 14 days treatment at the indicated dose. Tumours were excised 6 hours following the last injection.
The drug was stable after oral, parenteral and intravenous administration for 24 h (last time point examined). […] The Cma and AUC0-24h following i.p. injection (20 mg/kg) were 3.2 μg/mL and 11.2 μg/mL*h, respectively. […] The acid instability of HDAC-C1A could therefore be improved by enteric coating as a means to avoid breakdown in the stomach. […] HDAC-C1A was also tested in HCT116 human colon cancer xenograft model using a refined dose and scheduling. […] This dose was non-toxic (no reduction in body weight) (FIG. 5.D). The acetylated form of α-tubulin (biomarker of response to HDAC6 inhibition) could be observed after 14 days of treatment and could be detected as early as 6 hours after the 1st injection (FIG. 5.E.). The acetylated form of Histone 3 (biomarker of response of class I histones) could be observed as early as 2 hours after the 1st injection and remain after 14 days of treatment (FIG. 5.E).

[5] = 14 days, 40 mg/kg every other day

Chain of HDAC6 (Q9UBN7 whole entry): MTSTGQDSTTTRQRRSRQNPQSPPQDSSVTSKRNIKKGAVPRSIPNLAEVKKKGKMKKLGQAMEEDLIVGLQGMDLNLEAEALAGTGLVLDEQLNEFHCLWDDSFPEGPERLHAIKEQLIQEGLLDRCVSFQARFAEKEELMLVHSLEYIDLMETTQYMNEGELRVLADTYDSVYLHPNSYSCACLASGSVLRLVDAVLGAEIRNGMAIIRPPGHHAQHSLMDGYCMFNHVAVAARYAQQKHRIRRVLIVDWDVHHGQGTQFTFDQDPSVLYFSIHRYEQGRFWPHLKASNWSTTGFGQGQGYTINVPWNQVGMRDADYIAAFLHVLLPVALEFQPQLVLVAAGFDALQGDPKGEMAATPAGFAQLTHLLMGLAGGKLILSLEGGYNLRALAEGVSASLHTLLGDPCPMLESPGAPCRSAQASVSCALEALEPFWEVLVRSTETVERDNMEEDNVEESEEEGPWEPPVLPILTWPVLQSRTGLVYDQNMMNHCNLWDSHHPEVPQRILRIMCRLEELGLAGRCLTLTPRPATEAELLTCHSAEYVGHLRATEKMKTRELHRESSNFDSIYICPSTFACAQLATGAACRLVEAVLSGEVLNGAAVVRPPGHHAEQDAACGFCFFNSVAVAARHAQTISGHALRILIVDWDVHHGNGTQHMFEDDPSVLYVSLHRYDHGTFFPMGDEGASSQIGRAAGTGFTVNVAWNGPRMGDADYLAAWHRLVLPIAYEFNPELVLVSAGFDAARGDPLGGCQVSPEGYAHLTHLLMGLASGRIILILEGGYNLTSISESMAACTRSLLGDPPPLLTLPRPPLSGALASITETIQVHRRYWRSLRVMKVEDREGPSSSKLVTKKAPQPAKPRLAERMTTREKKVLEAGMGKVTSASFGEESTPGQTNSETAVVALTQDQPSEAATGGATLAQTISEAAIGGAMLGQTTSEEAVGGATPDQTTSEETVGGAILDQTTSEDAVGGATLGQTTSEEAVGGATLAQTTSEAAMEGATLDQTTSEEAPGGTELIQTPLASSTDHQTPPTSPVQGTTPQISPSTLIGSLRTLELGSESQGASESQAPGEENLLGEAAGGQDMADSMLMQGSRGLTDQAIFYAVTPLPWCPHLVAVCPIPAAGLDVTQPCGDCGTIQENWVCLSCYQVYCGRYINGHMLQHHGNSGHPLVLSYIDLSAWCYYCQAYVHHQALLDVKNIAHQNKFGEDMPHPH
Chain of P-gp (P08183 whole entry): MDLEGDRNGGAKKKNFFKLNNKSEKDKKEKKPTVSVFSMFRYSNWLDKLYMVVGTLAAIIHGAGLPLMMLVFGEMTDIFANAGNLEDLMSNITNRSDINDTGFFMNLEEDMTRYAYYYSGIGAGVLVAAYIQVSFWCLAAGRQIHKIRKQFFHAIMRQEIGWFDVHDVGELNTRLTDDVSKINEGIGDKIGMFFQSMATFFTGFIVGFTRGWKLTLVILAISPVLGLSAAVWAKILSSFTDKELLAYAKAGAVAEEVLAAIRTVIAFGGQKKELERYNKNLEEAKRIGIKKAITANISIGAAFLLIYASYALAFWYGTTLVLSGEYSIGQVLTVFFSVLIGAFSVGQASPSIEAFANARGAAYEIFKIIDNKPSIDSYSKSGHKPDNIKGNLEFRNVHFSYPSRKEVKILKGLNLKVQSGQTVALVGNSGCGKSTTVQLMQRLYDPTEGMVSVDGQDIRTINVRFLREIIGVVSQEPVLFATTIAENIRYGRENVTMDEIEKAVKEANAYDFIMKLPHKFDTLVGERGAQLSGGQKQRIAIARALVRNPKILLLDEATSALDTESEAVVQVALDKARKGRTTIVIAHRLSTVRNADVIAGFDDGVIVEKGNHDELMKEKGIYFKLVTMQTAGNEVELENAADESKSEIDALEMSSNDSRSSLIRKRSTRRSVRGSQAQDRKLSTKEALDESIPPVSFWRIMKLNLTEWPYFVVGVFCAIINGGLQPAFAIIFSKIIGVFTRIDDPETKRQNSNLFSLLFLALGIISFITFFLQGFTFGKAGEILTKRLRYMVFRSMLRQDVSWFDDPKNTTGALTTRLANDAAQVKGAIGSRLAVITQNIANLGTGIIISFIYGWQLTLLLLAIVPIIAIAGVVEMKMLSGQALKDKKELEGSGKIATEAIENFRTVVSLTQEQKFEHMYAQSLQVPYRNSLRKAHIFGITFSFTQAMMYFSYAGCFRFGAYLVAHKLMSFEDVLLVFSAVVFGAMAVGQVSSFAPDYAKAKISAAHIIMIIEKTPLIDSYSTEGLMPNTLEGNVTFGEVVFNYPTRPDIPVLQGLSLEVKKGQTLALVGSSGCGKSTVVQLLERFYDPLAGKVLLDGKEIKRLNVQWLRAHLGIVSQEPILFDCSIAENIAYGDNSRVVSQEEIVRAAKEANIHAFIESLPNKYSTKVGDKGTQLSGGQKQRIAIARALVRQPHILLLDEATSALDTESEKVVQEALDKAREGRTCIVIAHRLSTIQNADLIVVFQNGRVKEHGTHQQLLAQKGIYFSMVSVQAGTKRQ

## CC(/C=C/C(=O)NO)=C\c1ccc(NS(=O)(=O)c2ccc(N(CCCl)CCCl)cc2)cc1 [HDAC-C1A]
[1]
  mean GI50: 2 ± 0.4 µg/mL
P-gp
  fold resistance (GI50 ratio) P-gp over-expressing 3T3 vs parental: 17 fold
HDAC6
  IC50 for HDAC6: 0.063 µg/mL
HCT116 tumours; HDAC-C1A alone 20 mg/kg, 6 hours
  P-AKT in tumours: up-regulation
HCT116 tumours; HDAC-C1A combined with API-2, 24 hours after single injection
  P-AKT in tumours: still showed increased P-AKT
HCT116 tumours; combination regimen BEZ-235 + HDAC-C1A, 6 hours
  P-AKT in tumours: No P-AKT was detected
HCT116 xenograft [2]; 24 hours, 40 mg/kg
  number of genes deregulated (of 20 000 tested): 20 genes
  number of genes up-regulated: 17
HCT116 xenograft [2]; 14 days of treatment
  ALDH1 up-regulation: ~1.6 fold
  Gasdermin D up-regulation: ~1.5 fold
  K AZ up-regulation: ~1.5 fold
  KLK3 down-regulation: ~1.5 fold
  RAD23B up-regulation: ~1.8 fold
  SYNDECAN-2 down-regulation: ~1.7 fold
  UNG up-regulation: ~1.7 fold
HCT116 xenograft [2]; [5]
  number of genes deregulated by at least 1.5 fold: 132 genes
  share of genes deregulated: < 0.7%
HCT116 xenograft [2]; after 1 and 14 days
  mRNA levels of PTEN vs vehicle: not altered
HCT116 xenograft [3]; 48 H, HDAC-C1A 40 mg/kg combined with API-2 1 mg/kg
  [18F]FLT-PET in comparison to control animals: unremarkable
HCT116 xenograft [3]; 24 hours after initiating treatment, 117±6.9 before treatment
  area under the normalized [18F]FLT time versus activity curve: 106±5.5
HCT116 xenograft [3]; 48 hours after initiating treatment, 117±6.9 before treatment
  area under the normalized [18F]FLT time versus activity curve: 54±5
HCT116 xenograft [3]; HDAC-C1A 20 mg/kg/day combined with BEZ235 25 mg/kg/day, 24 h-48 h
  fold decrease in tumour [18F]FLT uptake vs vehicle: 1.7 fold
HCT116 xenograft [3]; HDAC-C1A combined with BEZ235, 24-48 hours, 542±17 before treatment
  area under the normalized [18F]FLT time versus activity curve: 312±22
HCT116 xenograft [3]; treated continuously for 48 h, 40 mg/kg
  fold decrease in tumour [18F]FLT uptake vs vehicle: 2 fold
HCT116 cells
  concentration of LY-294002 needed to synergise: 1 µM
HCT116 cells; ED50
  lowest concentration synergising with rapamycin: ≥ 1.9 µM
SH-SY5Y
  GI50: 0.09 µg/mL (≈ 0.181 µM)
[4]; 80 mg/kg/day, in some animals, at 7 days, treatment stopped
  body weight loss: 10%
[4]; i.p. 80 mg/kg/day
  Tumour Growth Delay (TGD2x): 3 ± 0.3 days
  Tumour Growth Inhibition (TGI) compared with vehicle: 74%
